This note sets out measurements from patent publication US20040147458A1, “Compositions to reduce exercise-induced swelling of joints” (priority 2003, published 2004).

The test system of data set [1] is Racing dogs, generally greyhounds. Description: Joint swelling after racing in racing dogs given ribose before the race. It is filed as in vivo, dog. The protocol: Racing dogs, generally greyhounds, are also susceptible to swollen joints after racing. […] The observed dosage for a horse was approximately 100 to 300 mg per kilogram body weight. Based on this observation, a greyhound weighing 65 pounds will benefit from a dose of about two to twelve grams of ribose which is approximately 65 to 300 mg per kilogram. The dosage should be given just before each race or hard workout. […] Administration can be by any convenient means. Ribose has a slightly sweet taste and dogs will readily drink a solution of ribose in water. Alternatively, the ribose solution can be sprayed into the dog's mouth for buccal absorption. […] As for horses, the ribose should not be given more than half an hour before the race or with other food or anything else that would delay absorption.

The next data set relates to Humans. In words: Swollen, sore knee joints in human subjects taking ribose. It is filed as in vivo. From the text:
Non-runners can also experience swelling in the joints. One subject who works in construction and does a lot of lifting frequently has swollen knees with accompanying soreness. […] A heavy equipment operator has suffered from soreness in their knees for several years following an injury to the joint. […] The third subject is a competitive “strong man” who competes in such trials as lifting heavy rocks and pulling buses. In the course of their training and competition, they have stressed their knee joints, which are frequently swollen and sore. […] On one occasion, they ingested a dose of 30 grams of ribose and the soreness in their knees disappeared within twenty minutes.

For a further data set, the system named is Standard Bred horses. Description: Joint swelling after racing in Standard Bred horses given ribose before and/or after each race. It is filed as in vivo, horse. From the text:
The dosage given should be adjusted carefully to each animal. It has been observed that the swelling reaction is variable; some horses have a great deal of swelling after each race and others are less affected. […] Beginning with a dose of 20 gm ribose, the dosages were adjusted upward. […] Although the weight of the horse was not a factor, the state of nourishment was important. Less well-nourished horses require less ribose for the prophylaxis and therapy of joint swelling. In those horses tested by Applicant, which had been maintained on the ribose-containing supplement, it was seen that a dosage of about 100 or 200 grams of ribose was required to prevent or reduce swelling. In all mammals it may be seen that increasing doses of ribose are necessary to provide the benefit of this invention. This seeming paradox may be due to the fact that mammals receiving ribose as a maintenance dietary supplement have more energy, run faster and thus sustain more acute exercise-related trauma to the joints. It must be stressed that whether or not horses are maintained on a ribose-containing dietary supplement such as that of Applicant, in order to obtain the benefits of this invention, the dosage and timing disclosed above must be followed. Twelve Standard Bred horses, three to eight years of age, were tested. […] The swelling was treated either with cold packs or rest. Time to recovery was approximately one hour to several days. In general, the horses were rested for three days and then exercised by jogging each day, running two miles and then increasing the miles to six to eight. The test horses were put on a schedule of ribose administration in a dosage of 40 gm before each race. […] Therefore, the standard procedure was to administer the optimal dose of ribose both before and after each race. […] Time to recovery of these animals was about ten hours. […] After the horses had been on ribose maintenance for a time, all required higher doses of ribose, up to 100 gm a dose given both before and after racing, in order to show a benefit.

Structures are written as SMILES.

As for `O=C[C@H](O)[C@H](O)[C@H](O)CO` [ribose, D-Ribose], in data set [1] (high dose before the race only), the “prevention or reduction of joint swelling” value is “adequate in most cases to prevent or reduce joint swelling”. In data set [1] (proper dosage of ribose, about two to twelve grams for a 65 pound greyhound), the “expected benefit on swollen joints after racing” value is listed as “expected to give the same benefit as is shown for horses”. Besides, in the data set on Humans (competitive strong man, doses of five to ten grams), the “symptoms of swollen and sore knee joints” value is listed as “symptoms are lessened”. Further, the “time until soreness in knees disappeared” value in the data set with Humans (competitive strong man, single dose of 30 grams) is given as “twenty”. Also, the knee soreness entry in the data set on Humans (construction worker with swollen knees, dose of about five grams) was “soreness subsides”. Also, the knee achiness entry in the data set on Humans (heavy equipment operator, soreness after joint injury, five gram dose) is listed as “effective to lessen the achiness”. Moreover, the “joint swelling after race” value with Standard Bred horses (40 gm ribose before each race only, twelve horses) is reported as “most of the animals still showed some joint swelling”; with Standard Bred horses (optimal dose of ribose both before and after each race) it was “the majority of the animals showed no swelling”. Also, in the data set on Standard Bred horses (animals with moderate swelling despite ribose before and after race, cold packs applied), the time to recovery entry was “about ten”. Moreover, the resumption of training entry in the data set on Standard Bred horses (compared with animals not given ribose before and after racing) was “able to resume training earlier”. In addition, the “benefit on swelling, ribose alone” value in the data set on Standard Bred horses (easily absorbed dose of ribose alone given immediately before and immediately after each race) is “additional benefit was seen”. Further, the “dose required to show a benefit” value in the data set on Standard Bred horses (horses on ribose maintenance for a time, dose given both before and after racing) was “up to 100 gm”. Besides, in the data set on Standard Bred horses (optimal dose of ribose both before and after each race, cold packs applied), the “fraction of animals showing moderate swelling” value was “About one-third”. Moreover, the side-effects entry in the data set with Standard Bred horses (ribose at suggested levels) was “no side-effects”. Besides, the “attitude of the horses after a race (subjective measure)” value in the data set with Standard Bred horses (ribose given only before the race) was “willing to play and move around their stalls”.
